Test results from PMC8000760, “Potential Effect of Pseudevernia furfuracea (L.) Zopf Extract and Metabolite Physodic Acid on Tumour Microenvironment Modulation in MCF-10A Cells” (Biomolecules, 2021).

Tests used:
[1] = system: HUVECs; assay: BrdU cell proliferation assay; assay type: cell-based, human; conditions: 48 h
Procedure: (§1) The MCF-10A (5 × 10^3/well), BJ-5ta (5 × 10^3/well) and HUVEC cells (4 × 10^3/well) were plated in a 96-well plate in 80 μL suitable medium. HUVECs were seeded onto a gelatine-coated plate. After 24 h, cells were treated with the range of concentration 10–100 μg/mL for 72 h (MCF-10A, BJ-5ta), or in the presence or absence of 25 ng/mL of VEGF for 48 h (HUVECs). After 48 h (MCF-10A, BJ-5ta) or 24 h (HUVECs), BrdU labelling solution was added into cells and incubated for another 24 h at 37 °C, followed by fixation and incubation with anti-BrdU peroxidase conjugate solution for an additional 1.5 h at room temperature (RT). Then, cells were washed with washing buffer PBS and incubated with substrate solution TMB for 5 to 30 min according to colour intensity. Finally, we added stop solution (1 M H2SO4) and incorporated BrdU was detected with an automated CytationTM 3 Cell Imaging Multi-Mode Reader at 450 nm (reference wavelength: 690 nm). Three independent experiments were performed at different intervals.

[2] = system: MCF-10A; assay: BrdU cell proliferation assay; assay type: cell-based, human; conditions: 72 h
Procedure: as §1

[3] = system: BJ-5ta; assay: BrdU cell proliferation assay; assay type: cell-based; conditions: 72 h
Procedure: as §1

[4] = system: MCF-10A, BJ-5ta and HUVEC cells; assay: MTS cell viability assay, range over the three cell lines; assay type: cell-based; conditions: cell viability and cell proliferation tests
Procedure: Briefly, MCF-10A and BJ-5ta were seeded in 96-well culture plates, and after 24 h incubation, treated with various ranges of concentrations of tested compounds (10–100 μg/mL) for 72 h. At the same time, HUVECs were seeded in a gelatine-coated 96-well plate and treated with the same aliquots of indicated compounds in the presence or absence of VEGF (Vascular endothelial growth factor) (25 ng/mL) for 48 h. Cell viability was evaluated by measuring the absorbance at 490 nm using the automated CytationTM 3 Cell Imaging Multi-Mode Reader (Biotek, Winooski, VT, USA). Three independent experiments were performed at different intervals.

[5] = system: N-cadherin in TGF-β-stimulated MCF-10A cells; assay: N-cadherin expression, flow cytometry; assay type: cell-based, human; conditions: IC10, 24, 48, 72 h, compared to TGF-β alone
Procedure: (§2) The MCF-10A and BJ-5ta cells were seeded and cultivated for 24 h in a complete medium. One day after seeding, 30 ng/mL of TGF-β was added and cultivated for 7 days (d). TGF-β was added to induce epithelial–mesenchymal transition in tested cell lines. Lichen extract P. furfuracea (L.) Zopf and its metabolite physodic acid were added at time 0 h and then incubated for 24, 48 and 72 h for various analyses, as described in Figure 1.
The MCF-10A cells (1 × 10^4/well) were seeded in Petri dishes and stimulated with […] TGF-β for 7 days. […] After detaching, using Trypsin/EDTA, cells were harvested and pelleted by centrifugation at 1200 rpm for 5 min. Pellet was re-suspended in PBS and divided for a particular analysis. Cells were stained prior to analyses with E-Cadherin Mouse mAb (Alexa Fluor 488 conjugate) or N-cadherin Rabbit mAb (Alexa Fluor 647 conjugate) (Cell Signalling) for 15 min at RT in the dark. For the cell cycle analyses, cells were re-suspended in staining solution (final concentration 0.1% Triton X-100, 0.5 mg/mL ribonuclease A and 0.025 mg/mL propidium iodide (PI)), and incubated in the dark at RT for 30 min. All samples were analysed using a FACS Calibur flow cytometer (Becton Dickinson, San Jose, CA, USA). The IgG isotype control checking was performed for every used antibody.

[6] = system: N-cadherin in TGF-β-stimulated MCF-10A cells; assay: N-cadherin expression, immunofluorescence staining; assay type: cell-based, human; conditions: IC10, 72 h, compared to TGF-β alone
Procedure: as §2
The MCF-10A cells at a density of 2 × 10^3/cm^2, plated on 22 mm^2 glass coverslips, were stimulated for 7 days with 30 ng/mL of TGF-β. […] After treatment, cells were washed with PBS, fixed with 4% paraformaldehyde (pH 7.2) for 10 min, permeabilised by 0.1% Triton X-100 (Sigma-Aldrich) for 10 min at RT and then washed three) times with PBS for 5 min. Glass coverslips were then incubated with Swine serum (1:30) for 30 min for blocking non-specific binding. Primary antibodies were diluted according to the manufacturer’s instructions (Table 2) and transferred to coverslips for 90 min. […] All coverslips were mounted in Vectashield (Cole-Parmer, Illinois, USA) and immunofluorescence pictures were taken with the same exposition settings by the Nikon Eclipse 90i fluorescence microscope (Nikon, Tokyo, Japan) equipped with filter cubes for FITC and DAPI. Images were then analysed using ImageJ (NIH) software.

[7] = system: E-cadherin in TGF-β-stimulated MCF-10A cells; assay: E-cadherin expression (Western blot, flow cytometry, immunofluorescence); assay type: cell-based, human; conditions: TGF-β-stimulated groups
Procedure: as §2
The MCF-10A cells (1 × 10^4/well) were seeded in Petri dishes and stimulated with […] TGF-β for 7 days. […] After detaching, using Trypsin/EDTA, cells were harvested and pelleted by centrifugation at 1200 rpm for 5 min. […] All samples were analysed using a FACS Calibur flow cytometer (Becton Dickinson, San Jose, CA, USA). […]
(§3) Proteins isolated from MCF-10A and BJ-5ta cell lysates were determined by the Pierce® BCA Protein Assay Kit (Thermo Scientific, Rockford, IL, United States), using bovine serum albumin (BSA) as the standard, and measured by an automated Cytation™ 3 Cell Imaging Multi-Mode Reader (Biotek) at a wavelength of 570 nm. […] After incubation, the membrane was again washed in TBS-Tween (3 × 5 min), and the expression of the protein was detected using a chemiluminescent ECL substrate (Thermo Fisher Scientific) and MF-ChemiBIS 2.0 Imaging System (DNR BIO-Imaging Systems, Jerusalem, Israel). […]

[8] = system: pSmad2/3 in BJ-5ta; assay: Western blot of phospho-Smad2/3 in TGF-β-stimulated fibroblasts; assay type: cell-based; conditions: TGF-β-stimulated BJ-5ta, time-dose manner
Procedure: as §2
as §3, with “nm. Proteins were separated on SDS-PAA gel (12%) at 100 V for 2 h and then transferred to a polyvinylidene difluoride (PVDF) membrane using the iBlot dry blotting system (Thermo Scientific, Rockford, IL, United States).” for “nm.”, “Israel). The detected band was then analysed densitometrically using the Image Studio Lite software (LI-COR Biosciences, Lincoln, NE, USA).” for “Israel).”

[9] = system: Smad2/3 in BJ-5ta; assay: Western blot of total Smad2/3 in TGF-β-stimulated fibroblasts; assay type: cell-based; conditions: TGF-β-stimulated BJ-5ta
Procedure: as §2
as §3, with “nm. Proteins were separated on SDS-PAA gel (12%) at 100 V for 2 h and then transferred to a polyvinylidene difluoride (PVDF) membrane using the iBlot dry blotting system (Thermo Scientific, Rockford, IL, United States).” for “nm.”, “Israel). The detected band was then analysed densitometrically using the Image Studio Lite software (LI-COR Biosciences, Lincoln, NE, USA).” for “Israel).”

## CCCCCC(=O)Cc1cc(O)cc2c1C(=O)Oc1cc(O)c(C(=O)O)c(CCCCC)c1O2 [Phy, physodic acid]
[1]
  IC10: 89.53 ± 3.21 µM
[1]; Homo sapiens, HUVEC
  IC50: 124 ± 5.33 µM
[2]
  IC10: 63.63 ± 3.40 µM
[2]; Homo sapiens
  IC50: 155 ± 7.4 µM
[3]
  IC10: 62.88 ± 0.90 µM
  IC50: 164 ± 4.5 µM
[4]
  degree of cytotoxicity on all tested cells: did not show a high degree of cytotoxicity
[5]
  N-cadherin expression, flow cytometry: significantly reduced
[6]
  N-cadherin expression, immunofluorescence: significant decrease
[7]
  restoration of E-cadherin: did not observe a significant restoration
[8]
  phosphorylation levels of Smad2 and Smad3 (pSmad2/3): decreased
[9]
  total Smad2/3 levels: altered minimally
